Assay results reported in article PMC11649397, “The study of halogen effect on the reactivity of the serine-targeting covalent warheads” (Frontiers in Chemistry, 2024).

Molecular target: T1, human pancreatic lipase (hPL) (Homo sapiens, UniProt P16233)
T1 sequence (P16233 17-465): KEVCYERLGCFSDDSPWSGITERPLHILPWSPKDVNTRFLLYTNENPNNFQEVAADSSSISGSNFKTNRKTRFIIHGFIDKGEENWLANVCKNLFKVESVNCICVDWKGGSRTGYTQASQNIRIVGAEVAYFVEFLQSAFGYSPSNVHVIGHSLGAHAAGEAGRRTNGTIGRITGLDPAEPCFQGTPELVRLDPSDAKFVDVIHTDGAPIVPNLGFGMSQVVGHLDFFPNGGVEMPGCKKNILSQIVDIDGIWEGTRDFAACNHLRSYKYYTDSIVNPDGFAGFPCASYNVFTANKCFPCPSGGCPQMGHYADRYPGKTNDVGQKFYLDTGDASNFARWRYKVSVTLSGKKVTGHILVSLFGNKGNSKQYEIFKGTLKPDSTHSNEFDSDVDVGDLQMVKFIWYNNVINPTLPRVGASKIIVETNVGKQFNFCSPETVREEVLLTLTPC
Assay: Inhibition assay on human pancreatic lipase (substrate DDAO-ol)
Assay type: biochemical
Conditions: 10 μM, selectivity screening
Description: 1. Detailed experimental, materials, and methods
The household library of covalent fragments including D and F was from Organic Chemistry […]
Fig. S1. Partial fragment molecules of a household library targeting to serine.
Commercially available materials were ordered from commercial suppliers (Bidepharm, Shanghai, China) and used without further purification. Structures were checked by 1H- and 13C-NMR spectra on a Bruker AVANCE 600/125 MHz instrument for confirmation, using DMSO- d6 or CDCl 3 as the solvent. Molecular orbitals were calculated using Gaussian 09W and image generated by GaussView 6.0.1
Inhibition assay on hCES1A
In this study, a known bioluminogenic probe substrate NLMe was used for human carboxylesterase 1 (hCES1A) inhibition assays. […]
The luminescence signals were monitored in the microplate reader (SpectraMax iD3Molecular […]
Human carboxylesterase 2 (hCES2A) inhibition assays were conducted using FD, a known fluorescent substrate. […] The fluorescent signals (excitation/emission, 480 nm/525 nm) were continuously recorded by a microplate reader (SpectraMax iD3Molecular Devices, Austria). […]
fluorogenic probe. […] The fluorescent signals of hydrolytic product were quantified by using the microplate reader (Spectra Max M4, Austria), with the wavelength of 600 nm and 660 nm for excitation and emission, respectively. […]

| Structure (SMILES) | response to hPL |
| --- | --- |
| O=C(c1ccccc1)C(F)(F)F [F, 2,2,2-trifluoroacetophenone] | no potent responses |
| O=S(=O)(F)c1ccc(Br)cc1 [D, 4-bromobenzenesulfonyl fluoride] | no potent responses |
